Assay results reported in patent US20090239841A1, “Diaryl Ureas as CB1 Antagonists” (priority 2004, published 2009).

Molecular target: T1, hCB1 (Homo sapiens, UniProt P21554)
T1 construct: made in house; host or cells: Sf9 insect cells (baculovirus), P2 membranes
Assay: Agonist-induced GTP binding (GTPγ35S) assay at CB1, Example 8
Format: biochemical
Details: IC50 at CB1, determined as described in Example 8; read-out: IC50
Summary of the method: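 Antagonism read as inhibition of 1 nM CP55,940-stimulated GTPγ35S ([…]) binding, compounds at 10^−10 to 10^−5 M. Baculovirus-infected Sf9 membranes bearing hCB1 plus G-protein subunits, 60 min room-temperature incubation with 5 μM GDP. Filtration and scintillation counting; data as percent over basal.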

T1 sequence (P21554 whole entry): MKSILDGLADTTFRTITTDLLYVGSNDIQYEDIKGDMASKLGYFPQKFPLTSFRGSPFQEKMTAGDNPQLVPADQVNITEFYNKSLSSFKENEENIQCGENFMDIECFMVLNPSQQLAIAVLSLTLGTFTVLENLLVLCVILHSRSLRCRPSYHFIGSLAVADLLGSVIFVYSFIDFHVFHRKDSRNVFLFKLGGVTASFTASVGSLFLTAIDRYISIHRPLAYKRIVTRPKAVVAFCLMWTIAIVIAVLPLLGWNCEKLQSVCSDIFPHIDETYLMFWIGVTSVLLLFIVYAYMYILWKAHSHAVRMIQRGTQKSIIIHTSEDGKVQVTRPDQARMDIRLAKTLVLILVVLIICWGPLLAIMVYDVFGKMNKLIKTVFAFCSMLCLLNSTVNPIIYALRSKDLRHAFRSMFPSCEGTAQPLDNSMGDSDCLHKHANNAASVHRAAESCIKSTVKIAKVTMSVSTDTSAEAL

Row | Structure (SMILES) | IC50 [µM]
1 | CCC(=O)c1ccc(NC(=O)Nc2cccc(Cl)c2)cc1 [Compound 493, 1-(3-chlorophenyl)-3-(4-propionylphenyl)urea] | < 2
2 | CCc1cccc(NC(=O)Nc2ccc(C(=O)OC)cc2)c1 [Compound 494, methyl 4-({[(3-ethylphenyl)amino]carbonyl}amino)benzoate] | < 2
3 | CCc1ccc(NC(=O)Nc2ccc(C(=O)OC)cc2)cc1 [Compound 495, methyl 4-({[(4-ethylphenyl)amino]carbonyl}amino)benzoate] | < 2
4 | COC(=O)c1ccc(NC(=O)Nc2ccc(Cl)cc2)cc1 [Compound 496, methyl 4-({[(4-chlorophenyl)amino]carbonyl}amino)benzoate] | < 2
5 | CCOC(=O)c1ccc(NC(=O)Nc2cccc(CC)c2)cc1 [Compound 497, ethyl 4-({[(3-ethylphenyl)amino]carbonyl}amino)benzoate] | < 2
6 | CCOC(=O)c1ccc(NC(=O)Nc2ccc(CC)cc2)cc1 [Compound 498, ethyl 4-({[(4-ethylphenyl)amino]carbonyl}amino)benzoate] | < 2
7 | CCOC(=O)c1ccc(NC(=O)Nc2cccc(Cl)c2)cc1 [Compound 499, ethyl 4-({[(3-chlorophenyl)amino]carbonyl}amino)benzoate] | < 2
8 | CCOC(=O)c1ccc(NC(=O)Nc2ccc(Cl)cc2)cc1 [Compound 500, ethyl 4-({[(4-chlorophenyl)amino]carbonyl}amino)benzoate] | < 2
9 | CCc1ccc(NC(=O)Nc2ccc(S(C)(=O)=O)cc2)cc1 [Compound 501, 1-(4-ethylphenyl)-3-[4-(methylsulfonyl)phenyl]urea] | < 2
10 | CCc1ccc(NC(=O)Nc2ccc(C(=O)OC(C)C)cc2)cc1 [Compound 502, isopropyl 4-({[(4-ethylphenyl)amino]carbonyl}amino)benzoate] | < 2
11 | N#CCc1ccc(NC(=O)Nc2cccc(C#N)c2)cc1 [Compound 503, 1-[4-(cyanomethyl)phenyl]-3-(3-cyanophenyl)urea] | < 2
12 | CC(=O)c1cccc(NC(=O)Nc2ccc(CC#N)cc2)c1 [Compound 504, 1-(3-acetylphenyl)-3-[4-(cyanomethyl)phenyl]urea] | < 2
13 | CC(=O)c1ccc(NC(=O)Nc2ccc(CC#N)cc2)cc1 [Compound 505, 1-(4-acetylphenyl)-3-[4-(cyanomethyl)phenyl]urea] | < 2
14 | N#CCOc1ccc(NC(=O)Nc2ccc(C#N)cc2)cc1 [Compound 506, 1-[4-(cyanomethoxy)phenyl]-3-(4-cyanophenyl)urea] | < 2
15 | N#CCOc1ccc(NC(=O)Nc2cccc(C#N)c2)cc1 [Compound 507, 1-[4-(cyanomethoxy)phenyl]-3-(3-cyanophenyl)urea] | < 2
16 | CC(=O)c1ccc(NC(=O)Nc2ccc(OCC#N)cc2)cc1 [Compound 508, 1-(4-acetylphenyl)-3-[4-(cyanomethoxy)phenyl]urea] | < 2
17 | CCC(=O)c1ccc(NC(=O)Nc2cccc(C#N)c2)cc1 [Compound 509, 1-(3-cyanophenyl)-3-(4-propionylphenyl)urea] | < 2
18 | COC(=O)c1ccc(NC(=O)Nc2ccc(C(C)=O)cc2)cc1 [Compound 510, methyl 4-({[(4-acetylphenyl)amino]carbonyl}amino)benzoate] | < 2
19 | CCOC(=O)c1ccc(NC(=O)Nc2cccc(C#N)c2)cc1 [Compound 511, ethyl 4-({[(3-cyanophenyl)amino]carbonyl}amino)benzoate] | < 2
20 | CCOC(=O)c1ccc(NC(=O)Nc2cccc(C(C)=O)c2)cc1 [Compound 512, ethyl 4-({[(3-acetylphenyl)amino]carbonyl}amino)benzoate] | < 2
21 | CC(=O)c1cccc(NC(=O)Nc2ccc(C(=O)OC(C)C)cc2)c1 [Compound 513, isopropyl 4-({[(3-acetylphenyl)amino]carbonyl}amino)benzoate] | < 2
22 | CC(=O)c1ccc(NC(=O)Nc2ccc(C(=O)OC(C)C)cc2)cc1 [Compound 514, isopropyl 4-({[(4-acetylphenyl)amino]carbonyl}amino)benzoate] | < 2
23 | CCc1ccc(NC(=O)Nc2ccccc2[N+](=O)[O-])cc1 [Compound 515, 1-(4-ethylphenyl)-3-(2-nitrophenyl)urea] | < 2

The remaining lines, values ahead:

Row | IC50 [µM] | Structure (SMILES)
24 | < 2 | N#CCc1ccc(NC(=O)Nc2cccc(F)c2)cc1 [Compound 461, 1-[4-(cyanomethyl)phenyl]-3-(3-fluorophenyl)urea]
25 | < 2 | N#CCc1ccc(NC(=O)Nc2ccc(F)cc2)cc1 [Compound 462, 1-[4-(cyanomethyl)phenyl]-3-(4-fluorophenyl)urea]
26 | < 2 | Cc1ccc(NC(=O)Nc2ccc([N+](=O)[O-])cc2)cc1 [Compound 463, 1-(4-methylphenyl)-3-(4-nitrophenyl)urea]
27 | < 2 | Cc1cccc(NC(=O)Nc2ccc(OCC#N)cc2)c1 [Compound 464, 1-[4-(cyanomethoxy)phenyl]-3-(3-methylphenyl)urea]
28 | < 2 | Cc1ccc(NC(=O)Nc2ccc(OCC#N)cc2)cc1 [Compound 465, 1-[4-(cyanomethoxy)phenyl]-3-(4-methylphenyl)urea]
29 | < 2 | N#CCOc1ccc(NC(=O)Nc2cccc(F)c2)cc1 [Compound 466, 1-[4-(cyanomethoxy)phenyl]-3-(3-fluorophenyl)urea]
30 | < 2 | N#CCOc1ccc(NC(=O)Nc2ccc(F)cc2)cc1 [Compound 467, 1-[4-(cyanomethoxy)phenyl]-3-(4-fluorophenyl)urea]
31 | < 2 | CCC(=O)c1ccc(NC(=O)Nc2cccc(C)c2)cc1 [Compound 468, 1-(3-methylphenyl)-3-(4-propionylphenyl)urea]
32 | < 2 | CCC(=O)c1ccc(NC(=O)Nc2ccc(C)cc2)cc1 [Compound 469, 1-(4-methylphenyl)-3-(4-propionylphenyl)urea]
33 | < 2 | COC(=O)c1ccc(NC(=O)Nc2ccc(C)cc2)cc1 [Compound 470, methyl 4-({[(4-methylphenyl)amino]carbonyl}amino)benzoate]
34 | < 2 | COC(=O)c1ccc(NC(=O)Nc2cccc(F)c2)cc1 [Compound 471, methyl 4-({[(3-fluorophenyl)amino]carbonyl}amino)benzoate]
35 | < 2 | COC(=O)c1ccc(NC(=O)Nc2ccc(F)cc2)cc1 [Compound 472, methyl 4-({[(4-fluorophenyl)amino]carbonyl)amino)benzoate]
36 | < 2 | CCOC(=O)c1ccc(NC(=O)Nc2cccc(C)c2)cc1 [Compound 473, ethyl 4-({[(3-methylphenyl)amino]carbonyl}amino)benzoate]
37 | < 2 | CCOC(=O)c1ccc(NC(=O)Nc2ccc(C)cc2)cc1 [Compound 474, ethyl 4-({[(4-methylphenyl)amino]carbonyl}amino)benzoate]
38 | < 2 | CCOC(=O)c1ccc(NC(=O)Nc2cccc(F)c2)cc1 [Compound 475, ethyl 4-({[(3-fluorophenyl)amino]carbonyl}amino)benzoate]
39 | < 2 | CCOC(=O)c1ccc(NC(=O)Nc2ccc(F)cc2)cc1 [Compound 476, ethyl 4-({[(4-fluorophenyl)amino]carbonyl}amino)benzoate]

Row | IC50 [µM] | Structure (SMILES)
40 | < 2 | Cc1cccc(NC(=O)Nc2ccc(C(=O)OC(C)C)cc2)c1 [Compound 477, isopropyl 4-({[(3-methylphenyl)amino]carbonyl}amino)benzoate]
41 | < 2 | Cc1ccc(NC(=O)Nc2ccc(C(=O)OC(C)C)cc2)cc1 [Compound 478, isopropyl 4-({[(4-methylphenyl)amino]carbonyl}amino)benzoate]
42 | < 2 | CC(C)OC(=O)c1ccc(NC(=O)Nc2cccc(F)c2)cc1 [Compound 479, isopropyl 4-({[(3-fluorophenyl)amino]carbonyl}amino)benzoate]
43 | < 2 | CC(C)OC(=O)c1ccc(NC(=O)Nc2ccc(F)cc2)cc1 [Compound 480, isopropyl 4-({[(4-fluorophenyl)amino]carbonyl}amino)benzoate]
44 | < 2 | COC(=O)c1ccc(NC(=O)Nc2ccccc2)cc1 [Compound 481, methyl 4-[(anilinocarbonyl)amino] benzoate]
45 | < 2 | CCc1cccc(NC(=O)Nc2ccc(CC#N)cc2)c1 [Compound 482, 1-[4-(cyanomethyl)phenyl]-3-(3-ethylphenyl)urea]
46 | < 2 | CCc1ccc(NC(=O)Nc2ccc(CC#N)cc2)cc1 [Compound 483, 1-[4-(cyanomethyl)phenyl]-3-(4-ethylphenyl)urea]
47 | < 2 | N#CCc1ccc(NC(=O)Nc2cccc(Cl)c2)cc1 [Compound 484, 1-(3-chlorophenyl)-3-[4-(cyanomethyl)phenyl]urea]
48 | < 2 | N#CCc1ccc(NC(=O)Nc2ccc(Cl)cc2)cc1 [Compound 485, 1-(4-chlorophenyl)-3-[4-(cyanomethyl)phenyl]urea]
49 | < 2 | CCc1ccc(NC(=O)Nc2ccc([N+](=O)[O-])cc2)cc1 [Compound 487, 1-(4-ethylphenyl)-3-(4-nitrophenyl)urea]
50 | < 2 | CCc1cccc(NC(=O)Nc2ccc(OCC#N)cc2)c1 [Compound 488, 1-[4-(cyanomethoxy)phenyl]-3-(3-ethylphenyl)urea]
51 | < 2 | CCc1ccc(NC(=O)Nc2ccc(OCC#N)cc2)cc1 [Compound 489, N-[4-(cyanomethoxy)phenyl]-N′-(4-ethylphenyl)urea]
52 | < 2 | N#CCOc1ccc(NC(=O)Nc2cccc(Cl)c2)cc1 [Compound 490, 1-(3-chlorophenyl)-3-[4-(cyanomethoxy)phenyl]urea]
53 | < 2 | CCC(=O)c1ccc(NC(=O)Nc2cccc(CC)c2)cc1 [Compound 491, 1-(3-ethylphenyl)-3-(4-propionylphenyl)urea]
54 | < 2 | CCC(=O)c1ccc(NC(=O)Nc2ccc(CC)cc2)cc1 [Compound 492, 1-(4-ethylphenyl)-3-(4-propionylphenyl)urea]
